Values of other authors in patent publication US20120288569A1 (priority 2003, published 2012).

Key:
[1] = test system: calcification in aortas and kidneys of rats; conditions: rats treated with large amount of vitamin D3

For `O=P(O)(O)OP(=O)(O)O` [PPi, pyrophosphate], the “uptake by the apatite crystals” value (PPi at 2 μm/L concentration) is given as “rapidly and almost completely taken up”, the “concentration that binds strongly to crystals of hydroxyapatite, inhibiting further precipitation of calcium phosphate” value (in vitro) is given as at least 0.1 µM and the “effect on calcification in aortas and kidneys” value [1] is given as “inhibits calcification”.
